Results reported in patent US20250090540A1, “PI3K-ALPHA INHIBITORS AND METHODS OF USE THEREOF” (Relay Therapeutics, Inc., priority 2021, published 2025).

target: H1047R PIK3CA enzyme (Homo sapiens, UniProt P42336, H1047R); assay: ADP-Glo Biochemical PIK3CA Kinase Assay; conditions: not given
Sequence (P42336 whole entry H1047R): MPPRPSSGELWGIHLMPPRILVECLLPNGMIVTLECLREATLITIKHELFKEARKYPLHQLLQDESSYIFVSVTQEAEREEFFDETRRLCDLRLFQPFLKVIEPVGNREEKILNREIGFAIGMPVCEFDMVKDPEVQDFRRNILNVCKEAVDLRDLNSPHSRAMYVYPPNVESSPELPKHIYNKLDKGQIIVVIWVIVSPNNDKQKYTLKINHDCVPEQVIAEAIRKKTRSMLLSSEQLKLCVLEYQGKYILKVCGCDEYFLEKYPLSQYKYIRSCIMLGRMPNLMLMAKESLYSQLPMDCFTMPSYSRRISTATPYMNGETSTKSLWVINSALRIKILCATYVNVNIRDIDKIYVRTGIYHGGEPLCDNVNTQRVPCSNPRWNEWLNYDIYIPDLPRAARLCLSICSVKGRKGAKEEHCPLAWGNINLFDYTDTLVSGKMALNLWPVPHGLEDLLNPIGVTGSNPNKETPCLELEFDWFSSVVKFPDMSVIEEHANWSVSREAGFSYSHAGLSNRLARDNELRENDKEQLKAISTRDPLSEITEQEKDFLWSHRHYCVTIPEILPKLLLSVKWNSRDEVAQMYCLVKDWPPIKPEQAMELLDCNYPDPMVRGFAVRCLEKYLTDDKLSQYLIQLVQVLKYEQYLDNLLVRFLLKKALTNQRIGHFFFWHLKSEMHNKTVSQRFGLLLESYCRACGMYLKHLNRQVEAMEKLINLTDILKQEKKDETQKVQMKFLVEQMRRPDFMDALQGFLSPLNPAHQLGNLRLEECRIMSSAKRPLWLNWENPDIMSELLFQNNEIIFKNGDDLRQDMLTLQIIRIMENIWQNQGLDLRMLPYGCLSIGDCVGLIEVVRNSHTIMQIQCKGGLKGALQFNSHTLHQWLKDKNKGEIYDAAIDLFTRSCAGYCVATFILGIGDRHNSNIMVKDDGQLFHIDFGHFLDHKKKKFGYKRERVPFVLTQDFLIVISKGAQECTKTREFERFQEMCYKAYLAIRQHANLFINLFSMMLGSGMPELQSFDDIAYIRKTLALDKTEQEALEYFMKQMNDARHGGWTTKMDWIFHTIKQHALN
Sequence (P27986 whole entry partner): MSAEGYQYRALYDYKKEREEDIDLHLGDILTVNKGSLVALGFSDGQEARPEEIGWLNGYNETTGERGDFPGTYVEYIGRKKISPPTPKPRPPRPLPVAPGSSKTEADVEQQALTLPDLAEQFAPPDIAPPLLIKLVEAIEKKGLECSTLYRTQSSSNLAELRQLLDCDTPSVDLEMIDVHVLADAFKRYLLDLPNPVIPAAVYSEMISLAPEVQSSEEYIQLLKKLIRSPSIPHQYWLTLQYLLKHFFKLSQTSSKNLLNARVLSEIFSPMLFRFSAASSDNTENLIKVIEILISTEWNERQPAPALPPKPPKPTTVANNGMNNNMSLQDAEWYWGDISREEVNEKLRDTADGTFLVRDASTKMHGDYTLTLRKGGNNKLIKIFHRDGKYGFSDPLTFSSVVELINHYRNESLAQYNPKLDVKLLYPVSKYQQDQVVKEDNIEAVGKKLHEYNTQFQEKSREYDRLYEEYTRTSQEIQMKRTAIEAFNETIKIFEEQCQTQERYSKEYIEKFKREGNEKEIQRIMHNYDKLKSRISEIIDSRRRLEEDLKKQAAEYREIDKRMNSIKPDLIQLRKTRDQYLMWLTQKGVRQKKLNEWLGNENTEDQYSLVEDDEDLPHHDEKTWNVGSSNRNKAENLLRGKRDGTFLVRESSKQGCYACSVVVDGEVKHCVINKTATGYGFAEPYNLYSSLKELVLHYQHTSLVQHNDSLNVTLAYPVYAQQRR

`CNC(=O)c1cnc(Nc2ccccc2C)c(NC(=O)c2n[nH]c3ccccc23)c1` [I-175] and `CCn1nc(C(=O)Nc2cc(C(=O)NC)cnc2Nc2ccccc2C)c2ccccc21` [I-375] fall in the same range of IC50: 10 to 100 µM for the first, 10 to 100 µM for the second.

`Cc1ccc(Nc2ncc(C(=O)NCc3ccn(C)n3)cc2NC(=O)c2csc3ccccc23)cc1` [I-223] and `Cc1ccc(Nc2ncc(C(=O)NC3CS(=O)(=O)C3)cc2NC(=O)c2csc3ccccc23)cc1` [I-222] fall in the same range of IC50: 1 to 10 µM for the first, 1 to 10 µM for the second.

`CNC(=O)c1cnc(Nc2cc(F)ccc2Cl)c(NC(=O)c2cc(F)cc(C(F)(F)F)c2)c1` [I-810] and `CNC(=O)c1cnc(Nc2ccccc2S(C)(=O)=O)c(NC(=O)c2cc(F)cc(C(F)(F)F)c2)c1` [I-47] fall in the same range of IC50: 10 to 100 µM for the first, 10 to 100 µM for the second.

`CNC(=O)c1cnc(Nc2ccccc2C)c(NC(=O)c2cn3ccccc3n2)c1` [I-374] and `CNC(=O)c1cnc(Nc2ccccc2C)c(NC(=O)c2ncn3ccccc23)c1` [I-48] fall in the same range of IC50: 10 to 100 µM for the first, 10 to 100 µM for the second.

First: CNC(=O)c1cnc(Nc2ccccc2C)c(NC(=O)c2oc(C)nc2C)c1 [I-18]
Second: CNC(=O)c1cnc(Nc2ccccc2C)c(NC(=O)c2nc(SC)ncc2Cl)c1 [I-187]
The IC50 of the first is lower: 1 to 10 µM for the first, 10 to 100 µM for the second.

`Cc1ccccc1Nc1ncc(C(=O)N[C@@H]2CCN(C)C2)cc1NC(=O)c1cc(F)cc(C(F)(F)F)c1` (stereo in doubt) [I-64] and `Cc1ccccc1Nc1ncc(C(=O)O)cc1NC(=O)c1cc(F)cc(C(F)(F)F)c1` [I-17] fall in the same range of IC50: 1 to 10 µM for the first, 1 to 10 µM for the second.

Compared with `Cc1ccccc1Nc1ncc(C(=O)Nc2ccn(C)n2)cc1NC(=O)c1cc(F)cc(C(F)(F)F)c1` [I-235], `Cc1ccccc1Nc1ncc(C(=O)Nc2cc[nH]n2)cc1NC(=O)c1cc(F)cc(C(F)(F)F)c1` [I-230] is higher in IC50: 0.5 to 1 µM for the first, 1 to 10 µM for the second.

`CNC(=O)c1cnc(Nc2ccccc2C)c(NC(=O)Cc2ccccc2Cl)c1` [I-140] and `CNC(=O)c1cnc(Nc2ccccc2C)c(NC(=O)Cc2cn(C)c3ccccc23)c1` [I-167] fall in the same range of IC50: 10 to 100 µM for the first, 10 to 100 µM for the second.

`Cc1ccccc1Nc1ncc(-c2cnn(C)c2)cc1NC(=O)c1ccc(C(F)(F)F)cc1` [I-117] and `COc1cc(F)cc(C(=O)Nc2cc(-c3cnn(C)c3)cnc2Nc2ccccc2C)c1` [I-94] fall in the same range of IC50: 10 to 100 µM for the first, 10 to 100 µM for the second.

`CNC(=O)c1cnc(Nc2ccccc2C)c(NC(=O)c2csc(C(F)(F)F)n2)c1` [I-241] and `CNC(=O)c1cnc(Nc2ccccc2C)c(NC(=O)c2nccnc2C(F)(F)F)c1` [I-372] fall in the same range of IC50: 10 to 100 µM for the first, 10 to 100 µM for the second.

`CNC(=O)c1cnc(Nc2ccccc2C)c(NC(=O)C2CCOc3ccccc32)c1` (stereo not shown) [I-259] and `CNC(=O)c1cnc(Nc2ccccc2C)c(NC(=O)C2CCSc3ccccc32)c1` (stereo not shown) [I-260] fall in the same range of IC50: 10 to 100 µM for the first, 10 to 100 µM for the second.

Compared with `COCCn1cc(-c2cnc(Nc3ccccc3C)c(NC(=O)c3cc(F)cc(C(F)(F)F)c3)c2)cn1` [I-148], `Cc1cnnc(NC(=O)c2cnc(Nc3ccccc3C)c(NC(=O)c3cc(F)cc(C(F)(F)F)c3)c2)c1` [I-264] is higher in IC50: 0.5 to 1 µM for the first, 1 to 10 µM for the second.

`Cc1ccccc1Nc1ncc(-c2cnn(C)c2)cc1NC(=O)c1cccc2nn(C)cc12` [I-112] and `Cc1ccccc1Nc1ncc(-c2cnn(C)c2)cc1NC(=O)c1cccc2cn(C)nc12` [I-121] fall in the same range of IC50: 10 to 100 µM for the first, 10 to 100 µM for the second.

`CNC(=O)c1cnc(Nc2ccccc2C)c(NC(=O)C2(c3cccnc3)CC2)c1` [I-334] and `CNC(=O)c1cnc(Nc2ccccc2C)c(NC(=O)C2(c3ccc(C)cc3)CC2)c1` [I-160] fall in the same range of IC50: 10 to 100 µM for the first, 10 to 100 µM for the second.

First: O=C(Nc1cccc(=O)n1Cc1ccccc1Cl)c1csc2ccccc12 [I-807]
Second: Cc1ccccc1Nc1ncc(C(=O)NCC2(O)CCCCC2)cc1NC(=O)c1csc2ccccc12 [I-189]
The IC50 of the first is higher: 10 to 100 µM for the first, 0.5 to 1 µM for the second. The second is the more potent here.

`CNC(=O)c1cnc(Nc2ccccc2C)c(NC(=O)C(c2ccccc2)C(C)C)c1` (stereo not shown) [I-166] and `CNC(=O)c1cnc(Nc2ccccc2C)c(NC(=O)c2ccccc2)c1` [I-43] fall in the same range of IC50: 10 to 100 µM for the first, 10 to 100 µM for the second.

Compared with `CNC(=O)c1cnc(Nc2ccc(OC)cc2)c(NC(=O)c2cc(F)cc(C(F)(F)F)c2)c1` [I-174], `Cc1ccccc1Nc1ncc(NCC(N)=O)cc1NC(=O)c1cc(F)cc(C(F)(F)F)c1` [I-186] is lower in IC50: 10 to 100 µM for the first, 1 to 10 µM for the second. The second is the more potent here.

`CNC(=O)c1cnc(Nc2cc(F)ccc2Cl)c(Nc2nccc3c(Cl)cccc23)c1` [I-805, 6-((2-chloro-5-fluorophenyl)amino)-5-((5-chloroisoquinolin-1-yl)amino)-N-methylnicotinamide] and `CNC(=O)c1cnc(Nc2ccccc2C)c(NC(=O)c2cc(F)cc3ccccc23)c1` [I-320] fall in the same range of IC50: 10 to 100 µM for the first, 10 to 100 µM for the second.

Compared with `CNC(=O)c1cnc(Nc2ccccc2C)c(NC(=O)c2csc3cc(C)ccc23)c1` [I-354], `CNC(=O)c1cnc(Nc2ccccc2C)c(NC(=O)c2cc(F)cc3[nH]ccc23)c1` [I-392] is higher in IC50: 1 to 10 µM for the first, 10 to 100 µM for the second. The first is the more potent here.

`O=C(Nc1cc(-c2ccc3ncnn3c2)cnc1N[C@H]1CCCC[C@H]1CO)c1cc(F)cc(C(F)(F)F)c1` (racemic) [I-817] and `O=C(Nc1cc(-c2ccc3ncnn3c2)cnc1NC(CO)CCO)c1cc(F)cc(C(F)(F)F)c1` (stereo not shown) [I-818] fall in the same range of IC50: 10 to 100 µM for the first, 10 to 100 µM for the second.

First: Cc1ccccc1NC(=O)c1cc(NC(=O)c2cc(F)cc(C(F)(F)F)c2)c(Nc2ccccc2C)cn1 [I-324]
Second: Cc1ccccc1Nc1ncc(-c2ccc(NC(=O)OC(C)(C)C)cc2)cc1NC(=O)c1cc(F)cc(C(F)(F)F)c1 [I-80]
The IC50 of the first is higher: 10 to 100 µM for the first, 1 to 10 µM for the second.

`CNC(=O)c1cnc(Nc2ccccc2C)c(NC(=O)c2cccc3cnccc23)c1` [I-237] and `CNC(=O)c1cnc(Nc2ccccc2C)c(NC(=O)c2ccc3ccccc3c2)c1` [I-182] fall in the same range of IC50: 10 to 100 µM for the first, 10 to 100 µM for the second.

Compared with `O=C(Nc1cccnc1NC1CCCCC1)c1csc2ccccc12` [I-153], `Cc1ccccc1Nc1ncc(-c2cnn(C)c2)cc1NC(=O)c1csc2ccc(Cl)cc12` [I-145] is lower in IC50: 10 to 100 µM for the first, 1 to 10 µM for the second.

`CNC(=O)c1cnc(Nc2ccccc2C)c(NC(=O)c2ccc(F)c(F)c2OC)c1` [I-378] and `CNC(=O)c1cnc(NC2CCCCC2)c(NC(=O)c2cc(F)cc(C(F)(F)F)c2)c1` [I-359] fall in the same range of IC50: 10 to 100 µM for the first, 10 to 100 µM for the second.

same assay, conditions: ADP-Glo biochemical PIK3CA kinase assay

Compared with `COc1cncc(CNC(=O)c2cc(NC(=O)c3csc4ccccc34)n(CC3CCC3)c(=O)c2)c1` [I-777], `CNC(=O)c1cnc(Nc2cccc(OC)c2)c(NC(=O)c2csc3ccccc23)c1` [I-401] is lower in IC50: 10 to 100 µM for the first, 1 to 10 µM for the second. The second is the more potent here.

First: CNC(=O)c1cnc(Nc2ccccc2C)c(NC(=O)c2cn(C)nc2C(F)F)c1 [I-417]
Second: CNC(=O)c1cnc(Nc2ccccc2C)c(NC(=O)c2ccnc(C(F)F)c2)c1 [I-650]
The IC50 of the first is higher: 10 to 100 µM for the first, 1 to 10 µM for the second.

`CNC(=O)c1cnc(Nc2ccccc2C)c(NC(=O)c2cc3cc[nH]c3cc2F)c1` [I-429] and `CNC(=O)c1cnc(Nc2ccccc2C)c(NC(=O)c2ccc(F)c(C)c2Cl)c1` [I-479] fall in the same range of IC50: 10 to 100 µM for the first, 10 to 100 µM for the second.

`COC1CN(c2ncc(C(=O)N[C@H]3C[C@@H](C(C)=O)C3)cc2NC(=O)c2csc3ccccc23)C1` [I-771] and `Nc1ncc(C(=O)N[C@H]2C[C@@H](C(N)=O)C2)cc1NC(=O)c1csc2ccccc12` [I-689] fall in the same range of IC50: 1 to 10 µM for the first, 1 to 10 µM for the second.

`Cc1ccccc1Nc1ncc(C(=O)N2CCC(C)(O)C2)cc1NC(=O)c1csc2ccccc12` (stereo not shown) [I-589] and `Cc1ccccc1Nc1ncc(C(=O)N2CC(C)(C#N)C2)cc1NC(=O)c1csc2ccccc12` [I-543] fall in the same range of IC50: 1 to 10 µM for the first, 1 to 10 µM for the second.

First: Cc1ccccc1Nc1ncc(C(=O)Nc2c3c(nn2C)CCC3)cc1NC(=O)c1csc2ccccc12 [I-521]
Second: Cc1ccccc1Nc1ncc(C(=O)Nc2ncnn2C)cc1NC(=O)c1csc2ccccc12 [I-606]
The IC50 of the first is higher: 10 to 100 µM for the first, 1 to 10 µM for the second.

`CNC(=O)c1cnc(Nc2ccccc2C)c(NC(=O)c2cn(C)c3ncccc23)c1` [I-480] and `CNC(=O)c1cnc(Nc2ccccc2C)c(NC(=O)c2ccc(Br)c3cccnc23)c1` [I-516] fall in the same range of IC50: 10 to 100 µM for the first, 10 to 100 µM for the second.

First: CNC(=O)c1cnc(Nc2ccccc2C)c(NC(=O)c2cc(C)c(F)c(C)c2)c1 [I-489]
Second: CNC(=O)c1cnc(Nc2ccccc2C)c(NC(=O)c2cc(C)cc(OC)c2)c1 [I-478]
The IC50 of the first is lower: 1 to 10 µM for the first, 10 to 100 µM for the second. The first is the more potent here.

Compared with `CNC(=O)c1cnc(Nc2nccc3[nH]ccc23)c(NC(=O)c2csc3ccccc23)c1` [I-729], `CNC(=O)c1cnc(Nc2ccccc2C)c(NC(=O)c2ccnc3ccc(Br)cc23)c1` [I-444] is higher in IC50: 1 to 10 µM for the first, 10 to 100 µM for the second. The first is the more potent here.

`CNC(=O)c1cnc(Nc2ccccc2C)c(NC(=O)c2cccc3c2OC(C)(C)C3)c1` [I-529] and `CNC(=O)c1cnc(Nc2ccccc2C)c(NC(=O)c2coc3cccc(Br)c23)c1` [I-483] fall in the same range of IC50: 10 to 100 µM for the first, 10 to 100 µM for the second.

`CNC(=O)c1cnc(Nc2ccccc2C)c(NC(=O)c2cc(F)ccc2OC(F)(F)F)c1` [I-495] and `CNC(=O)c1cnc(Nc2ccccc2C)c(NC(=O)c2cc(C(F)(F)F)ccn2)c1` [I-432] fall in the same range of IC50: 10 to 100 µM for the first, 10 to 100 µM for the second.

`CNC(=O)c1cnc(Nc2ccccc2C)c(NC(=O)c2onc3c2CCCC3)c1` [I-463] and `CNC(=O)c1cnc(Nc2ccccc2C)c(NC(=O)c2nn(C)c3c2CCC3)c1` [I-472] fall in the same range of IC50: 10 to 100 µM for the first, 10 to 100 µM for the second.

First: Cc1ccccc1Nc1c(NC(=O)c2csc3ccccc23)ccn(C)c1=O [I-548]
Second: CNC(=O)c1cnc(Nc2ccccc2C)c(NC(=O)c2cc(Cl)n3ccccc23)c1 [I-449]
The IC50 of the first is higher: 1 to 10 µM for the first, 0.1 to 0.5 µM for the second.

First: CNC(=O)c1cnc(Nc2ccccc2C)c(NC(=O)c2cc3cccc(Cl)c3s2)c1 [I-456]
Second: CNC(=O)c1cnc(Nc2ccccc2C)c(NC(=O)c2cc3c(Cl)cncc3s2)c1 [I-452]
The IC50 of the first is lower: 1 to 10 µM for the first, 10 to 100 µM for the second.

`CNC(=O)c1cnc(Nc2ccccc2C)c(NC(=O)CCc2cc(F)ccc2Br)c1` [I-497] and `CNC(=O)c1cnc(Nc2ccccc2C)c(NC(=O)CCc2cc(Br)ccc2F)c1` [I-542] fall in the same range of IC50: 10 to 100 µM for the first, 10 to 100 µM for the second.

Compared with `CNC(=O)c1cnc(Nc2ccccc2C)c(NC(=O)c2onc3ccccc23)c1` [I-644], `CNC(=O)c1cnc(Nc2ccccc2C)c(NC(=O)c2cc(C)c3ccccc3n2)c1` [I-418] is higher in IC50: 1 to 10 µM for the first, 10 to 100 µM for the second.

`CNC(=O)c1cnc(Nc2ccccc2C)c(NC(=O)c2cnc3cc(F)ccn23)c1` [I-451] and `CNC(=O)c1cnc(Nc2ccccc2C)c(NC(=O)c2c[nH]c3cccc(Cl)c23)c1` [I-528] fall in the same range of IC50: 10 to 100 µM for the first, 10 to 100 µM for the second.

`Nc1ncc(C(=O)NC2CC(F)(F)C2)cc1NC(=O)c1csc2ccccc12` [I-675] and `CNC(=O)c1cnc(Nc2ccccc2C)c(NC(=O)Cc2noc3ccccc23)c1` [I-651] fall in the same range of IC50: 1 to 10 µM for the first, 1 to 10 µM for the second.

`O=C(N[C@H]1CCC[C@H]1N1CCOc2ccccc21)c1cc(F)cc(C(F)(F)F)c1` (racemic) [I-796] showed an IC50 of 0.5 to 1 µM.
